Assay results published in patent US10172875B2, “Therapeutic combinations comprising anti-FOLR1 immunoconjugates” (ImmunoGen, Inc., priority 2015, dated 2019).
Like-named read-outs stand apart in the source and are kept apart here.

Key:
[1] = test system: OV90 ovarian tumor xenografts; test: Antitumor activity of carboplatin doublets and triple-combinations in OV90 tumor model (Example 8); type: in vivo, SCID mice; conditions: single doses: IMGN853 5 mg/kg, carboplatin 100 mg/kg, bevacizumab 5 mg/kg, paclitaxel 10 mg/kg
Excerpt: (§1) All treatments consisted of single doses (1×).
FIG. 7 depicts the results.

[2] = test system: platinum-sensitive PDX tumors; test: Carboplatin doublets QWx2 in platinum-sensitive PDX (FIG. 9E); type: in vivo, mice; conditions: PLD 4 mg/kg or IMGN853 5 mg/kg
Protocol: The combinatorial benefit conferred by IMGN853/carboplatin treatment was compared with clinically relevant chemotherapeutic combinations in the same PDX model. Tumor-bearing animals received two consecutive weekly doses (QWx2) of carboplatin (80 mg/kg, i.p.) in combination with i.v. paclitaxel (10 mg/kg), PLD (4 mg/kg), or IMGN853 (5 mg/kg). As expected, treatment with the carboplatin-paclitaxel doublet was efficacious in this model of platinum sensitivity (FIG. 9E). […] The higher incidence of CRs was strongly indicative of a better durability of response for the combination, and overall the data further supports the combination of IMGN853 with carboplatin for improving response to platinum therapy in EOC.

[3] = test system: OV90 serous ovarian tumor xenografts; test: Antitumor activity of IMGN853 (1.25 mg/kg), paclitaxel, bevacizumab and combinations in OV90 tumor model (Example 4); type: in vivo, SCID mice; conditions: single doses: IMGN853 1.25 mg/kg, paclitaxel 10 mg/kg, bevacizumab 5 mg/kg; for T/C: alone or combined; for CR: responders/animals
Protocol: Mice were randomized into groups (n=8 per group) by tumor volume and subsequently dosed on Day 14 post-inoculation. All treatments consisted of single doses (1×).
Tumor volumes were measured one to two times weekly in three dimensions using a caliper. […] Body weights were measured twice per week as an index of toxicity.

[4] = test system: ST088 human epithelial ovarian cancer (EOC) patient-derived tumor xenografts; test: Antitumor activity of IMGN853, bevacizumab, paclitaxel and combinations in ST088 tumor model (Example 6); type: in vivo, SCID mice; conditions: QWx2: IMGN853 5 mg/kg, bevacizumab 5 mg/kg, paclitaxel 10 mg/kg; for T/C: alone or combined; for CR / PR: responders/animals
Protocol: Tumor volumes were measured twice weekly in three dimensions using a caliper.

[5] = test system: IGROV-1 cells; test: Cell cycle analysis, IMGN853 and carboplatin (FIG. 9B); type: cell-based; conditions: carboplatin 20 μM, IMGN853 8 nM, alone or combined, 6 hours, then 24 hour drug-free medium
Protocol: Cells were washed, and cell cycle distribution determined following 24 hour culture in drug-free medium.

[6] = test system: platinum-sensitive ovarian cancer patient derived xenografts (PDXs); test: IMGN853 and carboplatin, single administration, in platinum-sensitive ovarian cancer PDX (FIG. 9D); type: in vivo, SCID mice; conditions: single administration: IMGN853 2.5 mg/kg and/or carboplatin 80 mg/kg; day 39
Protocol: Data are expressed as mean and standard error of the mean (SEM) for each time point.
To examine whether these in vitro cellular effects translated to improved efficacy in vivo, mice bearing patient-derived xenografts (PDX) obtained from an individual with EOC were treated with IMGN853 and carboplatin, both as single agents and in combination (FIG. 9D). […] Animals received a single administration of IMGN853 (2.5 mg/kg) or carboplatin (80 mg/kg), and each regimen inhibited tumor growth as monotherapy (T/C values of 43% and 20% on day 39, respectively).

[7] = test system: OV90 serous ovarian tumor xenografts; test: Antitumor activity of IMGN853, cediranib and combination in OV90 tumor model (Example 9); type: in vivo, SCID mice; conditions: IMGN853 2.5 mg/kg 1× and/or cediranib 1.5 mg/kg qd×5
Excerpt: The term “respond favorably” generally refers to causing a beneficial state in a subject. With respect to cancer treatment, the term refers to providing a therapeutic effect on the subject. Positive therapeutic effects in cancer can be measured in a number of ways (See, W. A. Weber, J. Nucl. Med. 50:1S-10S (2009)). For example, tumor growth inhibition, molecular marker expression, serum marker expression, and molecular imaging techniques can all be used to assess therapeutic efficacy of an anti-cancer therapeutic. Log10 Cell Kill (LCK) can be used to quantify the tumor cell kill. Log10 cell kill (LCK) is calculated with the formula LCK=(T−C)/Td×3.32, where (T−C) (or tumor growth delay (TGD)) is the median time (in days) for the treatment group and control group tumors to reach a predetermined size (tumor-free survivors excluded). Td is the tumor doubling time (estimated from nonlinear exponential curve fit of daily median of control tumor growth), and 3.32 is the number of cell doublings per log of cell growth. The ability to reduce tumor volume may be assessed, for example, by measuring a % T/C value, which is the median tumor volume of treated subjects divided by the median tumor volume of the control subjects. With respect to tumor growth inhibition, according to NCI standards, a T/C≤42% is the minimum level of anti-tumor activity. A T/C<10% is considered a high anti-tumor activity level, with T/C (%)=Median tumor volume of the treated/Median tumor volume of the control×100. A favorable response can be assessed, for example, by increased progression-free survival (PFS), disease-free survival (DFS), or overall survival (OS), complete response (CR), partial response (PR), or, in some cases, stable disease (SD), a decrease in progressive disease (PD), a […] time to progression (TTP), a decrease in CA125 in the case of ovarian cancer, or any combination thereof.

[8] = test system: OV90 serous ovarian tumor xenografts; test: Antitumor activity of IMGN853 (2.5 mg/kg), bevacizumab and combination in OV90 tumor model (Example 3); type: in vivo, SCID mice; conditions: IMGN853 2.5 mg/kg 1× and/or bevacizumab 5 mg/kg 1×
Excerpt: FIG. 2B depicts the results.

[9] = test system: OV-90 xenografts; test: Fractionated bevacizumab dosing with IMGN853 in OV-90 xenografts (FIG. 11A); type: in vivo, mice; conditions: IMGN853 3 mg/kg; bevacizumab single 5 mg/kg dose or two 2.5 mg/kg doses (QWx2); monotherapy or combination
[10] = test system: platinum-resistant ovarian cancer PDXs; test: IMGN853 with bevacizumab in platinum-resistant ovarian cancer PDX, 102-day study (FIG. 11B); type: in vivo, mice
Excerpt: Tumor growth was monitored out to 102 days. * P=0.011; ** P=0.018; ns, not significant (Wilcoxon test, non-adjusted).

[11] = test system: IGROV-1 ovarian tumor xenografts; test: Antitumor activity of IMGN853, bevacizumab and combination in IGROV-1 tumor model (Example 5); type: in vivo, SCID mice; conditions: IMGN853 5 mg/kg 1× and/or bevacizumab 5 mg/kg 1×
Excerpt: as §1
FIG. 4 depicts the results.

[12] = test system: OV-90 xenografts; test: OV-90 tumors harvested 4 days post-dosing: histology, γH2AX, CD31, anti-maytansine (FIGS. 12A-12C); type: in vivo, mice; conditions: IMGN853 2.5 mg/kg and/or bevacizumab 5 mg/kg; day 4
Protocol: Original magnification, 4×; scale bars, 2 mm (for Combination panel, 600 μm).
For each group, representative micrographs from one of three tumors are shown. Original magnification, 20×; scale bars, 200 μm.
Next, as a pharmacodynamic readout, tumor γH2AX levels were measured by immunoblotting (FIG. 12B).
While genotoxic insults are the primary inducers of γH2AX, accumulation of this protein can also occur in response to hypoxia. […] In order to examine treatment-related effects on microvessels, immunohistochemical staining with the endothelial cell marker CD31 was performed (FIG. 12C, upper panel).

[13] = test system: OV90 serous ovarian tumor xenografts; conditions: IMGN853 5 mg/kg 1× and/or bevacizumab 5 mg/kg 1×
Protocol: Mice were randomized into groups (n=6 per group) by tumor volume and subsequently dosed on Day 14 post-inoculation.
Tumor volumes were measured one to two times weekly in three dimensions using a caliper. The tumor volume was expressed in mm^3 using the formula V=Length×Width×Height×½ (Tomayko and Reynolds, Cancer Chemother. Pharmacol. 24:148-54 (1989)) Body weights were measured twice per week as an index of toxicity. Activity was assessed as described in Bissery et al. (1991).

[14] = test system: H2110 non-small cell lung cancer (NSCLC) tumor xenografts
Protocol: Mice were randomized into groups (n=6-10 per group) by tumor volume and subsequently dosed on Day 7 post-inoculation. All treatments consisted of single doses (1×).
Tumor volumes were measured one to two times weekly in three dimensions using a caliper. The tumor volume was expressed in mm^3 using the formula V=Length×Width×Height×½ (Tomayko 1989). Body weights were measured twice per week as an index of test agent toxicity. Activity was assessed as described in Bissery et al. (1991).

[15] = IMGN853 3 mg/kg 1× and/or bevacizumab 5 mg/kg 1×
[16] = IMGN853 3 mg/kg 1× and/or bevacizumab 5 mg/kg 1×, responders/animals

paclitaxel+carboplatin
T/C [1]: 45%
TFS [1]: 0/6
antitumor activity rating [1]: inactive
body weight loss (BWL) at nadir [1]: 11.1%
CR ([1]; responders/animals): 0/6
antitumor effect ([2]; QWx2: carboplatin 80 mg/kg i.p. with i.v. paclitaxel 10 mg/kg): efficacious
tolerability ([2]; QWx2: carboplatin 80 mg/kg i.p. with paclitaxel 10 mg/kg): well tolerated
complete regressions (CR) ([2]; QWx2: carboplatin 80 mg/kg i.p. with paclitaxel 10 mg/kg, n=7 mice/group): none

CC(=O)O[C@H]1C(=O)[C@@]2(C)[C@H]([C@H](OC(=O)c3ccccc3)[C@]3(O)C[C@H](OC(=O)[C@H](O)[C@@H](NC(=O)c4ccccc4)c4ccccc4)C(C)=C1C3(C)C)[C@]1(OC(C)=O)CO[C@@H]1C[C@@H]2O [paclitaxel]
TFS [3]: 0/6
antitumor activity rating [3]: inactive
T/C [3]: 94%
CR [3]: 0/6
antitumor activity rating [4]: inactive
T/C [4]: 71%
CR [4]: 0/8
PR [4]: 0/8

N.N.O=C([O-])C1(C(=O)[O-])CCC1.[Pt+2] [carboplatin, reference compound]
cell cycle distribution [5]: accumulation of IGROV-1 cells in both the S and G2/M phases
T/C [6]: 20%

COc1cc2c(Oc3ccc4[nH]c(C)cc4c3F)ncnc2cc1OCCCN1CCCC1 [cediranib, reference compound]
T/C [7]: 80%
antitumor activity rating [7]: inactive
LCK ([7]; Log10 cell kill): 0.1
PR ([7]; responders/animals): 0/6
T−C ([7]; tumor growth delay): 4 days

bevacizumab: recombinant humanized monoclonal IgG1 anti-VEGF antibody; active ingredient in Avastin [reference compound]
T/C [8]: 31%
TFS [8]: 0/6
antitumor activity rating [8]: active
CR ([8]; responders/animals): 0/6
antitumor effect [9]: Split-dosing had no effect
CRs ([10]; 5 mg/kg QWx2, over the course of a 102-day study): no CRs
antitumor effect ([10]; IMGN853 5 mg/kg QWx2, bevacizumab 5 mg/kg QWx2, alone or combined): prolonged growth control
TFS [3]: 0/8
antitumor activity rating [3]: active
T/C [3]: 22%
CR [3]: 0/8
T/C [11]: 51%
TFS [11]: 0/4
antitumor activity rating [11]: inactive
CR ([11]; responders/animals): 0/4
antitumor activity rating [4]: highly active
T/C [4]: 6%
CR [4]: 0/8
PR [4]: 0/8
tumor microvessels, CD31 immunohistochemical staining [12]: decreased in size and showed loss of luminal integrity
T/C [13]: 37%
antitumor activity rating [13]: active
tumor free survivors (TFS) [13]: 0/6
CR ([13]; responders/animals): 0/6
T/C [14, 15]: 22%
TFS [14, 15]: 0/6
antitumor activity rating [14, 15]: active
CR [14, 16]: 0/6
PR [14, 16]: 0/6
body weight loss ([14]; bevacizumab 5 mg/kg monotherapy, Day 49 post-inoculation): 9%
